# Laboratory results reported in US8426447B2, “Spiro-tricyclic ring compounds as beta-secretase modulators and methods of use” (Amgen Inc., priority 2008, dated 2013).
# “And” between values parts separate entries of the source, which are not always exact repeats. Identical values can stand only once.
# Key:
# BACE1 [1] = molecular target: T1, BACE1 (Homo sapiens, UniProt P56817); test: In Vitro BACE Cell-based Assay (HEK cell assay): Aβ40 in conditioned medium of cells stably expressing Amyloid Precursor Protein, sandwich ELISA
# Summary of the method: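 First, APP-stable cells grow 24 h at 37° C., 5% CO2. Next, test compounds are added for 24 h (10 doses, 0.1% DMSO). Finally, medium Aβ40 is determined by pAb40/6E10 sandwich ELISA with Europium TRF, and IC50 is calculated.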
# BACE1 [2] = molecular target: T1, BACE1; test: In Vitro Enzymatic BACE FRET (Fluorescence Resonance Energy Transfer) Assay; format: biochemical
# Summary of the method: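 Buffer 0.05 M acetate pH 4.2 with 10% DMSO final and 100 uM genapol; reaction started with 50 nM FRET peptide substrate (fluorophore/quencher flanking BACE cleavage site), incubated one hour. Stopped with Tris buffer raising pH to neutrality, then fluorescence read.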
# [3] = Table III, IC50's in uM ranges, read-out: HEK cell assay
# [4] = Table III, IC50's in uM ranges, read-out: BACE1 FRET assay
# [5] = HEK cells, read-out: HEK cell assay
# [6] = HEK cell-based assay, Aβ40 in conditioned medium, IC50 class symbols, read-out: HEK cell assay
# [7] = in vitro BACE FRET enzyme assay, IC50 class symbols, read-out: BACE1 FRET assay
# [8] = Table IV, class symbols, read-out: HEK cell assay
# [9] = Table IV, class symbols, read-out: BACE1 FRET assay
# [10] = Table II, Aβ40, 24 h incubation, read-out: HEK cell assay
# [11] = Table II, read-out: BACE1 FRET assay
# T1 sequence (P56817 46-501, species assumed): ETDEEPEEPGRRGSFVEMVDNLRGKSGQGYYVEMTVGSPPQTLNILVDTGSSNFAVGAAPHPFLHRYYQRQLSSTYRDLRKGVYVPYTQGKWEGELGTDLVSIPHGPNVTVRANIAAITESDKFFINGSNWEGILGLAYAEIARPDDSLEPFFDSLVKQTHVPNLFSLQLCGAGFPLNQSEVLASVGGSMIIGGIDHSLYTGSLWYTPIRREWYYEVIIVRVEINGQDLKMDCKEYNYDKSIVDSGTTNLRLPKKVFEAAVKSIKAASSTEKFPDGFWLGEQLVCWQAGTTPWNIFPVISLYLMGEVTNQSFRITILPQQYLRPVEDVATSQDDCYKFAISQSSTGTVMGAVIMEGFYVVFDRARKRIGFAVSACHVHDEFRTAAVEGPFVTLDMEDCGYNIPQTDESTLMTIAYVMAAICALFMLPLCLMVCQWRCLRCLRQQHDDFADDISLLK
smiles,measurement,setting,value
NC1=N[C@]2(CO1)c1cc(C(=O)CC3CCCCC3)ccc1Oc1ccc(-c3cncnc3)cc12 [compound 141],IC50,BACE1 [1]; [3],0.1 to 1 µM
same,IC50,BACE1 [2]; [4],< 0.1 µM
CC(C)(C)CNc1cc2c(cn1)Oc1ccc(-c3cccnc3)cc1[C@@]21COC(N)=N1 [compound 440],IC50,BACE1 [1]; [5],< 0.1 µM
same,IC50,BACE1 [2]; read-out: BACE1 FRET assay,< 0.1 µM
CC(C)(C)COc1ccc2c(c1)[C@]1(COC(N)=N1)c1cc(-c3ccc(=O)[nH]c3)ccc1O2 [compound 980],IC50,BACE1 [1]; read-out: HEK cell assay,1 to 5 µM
same,IC50,BACE1 [2]; read-out: BACE1 FRET assay,0.1 to 1 µM
NC1=N[C@@]2(CO1)c1cc(-c3cccnc3)ccc1Oc1c(F)cc(OCC3CCOCC3)cc12 [compound 418],IC50,BACE1 [1]; [6],< 0.1 µM
same,IC50,BACE1 [2]; [7],< 0.1 µM
"NC1=N[C@@]2(CO1)c1cc(-c3cccnc3F)ccc1Oc1cnc(C3CCOCC3)cc12 [Example 495, (5S)-7-(2-fluoro-3-pyridinyl)-3-(tetrahydro-2H-pyran-4-yl)spiro[chromeno[2,3-c]pyridine-5,4′-[1,3]oxazol]-2′-amine]",IC50,"BACE1 [1]; HEK cell assay (uM), HEK cells",< 0.1 µM
same,IC50,BACE1 [2]; BACE1 FRET assay (uM),< 0.1 µM
NC1=N[C@@]2(CO1)c1cc(-c3cncnc3)ccc1Oc1c(F)cccc12 [compound 553],IC50,BACE1 [1]; [8],0.1 to 1 µM
same,IC50,BACE1 [2]; [9],< 0.1 µM
CC(C)(C)OC(=O)Cc1ccc2c(c1)[C@]1(COC(N)=N1)c1cc(-c3cccnc3)ccc1O2 [compound 706],IC50,BACE1 [1]; read-out: HEK cell assay,0.1 to 1 µM
same,IC50,BACE1 [2]; read-out: BACE1 FRET assay,0.1 to 1 µM
"CC(C)(C)C#Cc1cc2c(cn1)Oc1ccc(-c3cncnc3)cc1[C@@]21COC(N)=N1 [compound 512, (5S)-3-(3,3-dimethyl-1-butyn-1-yl)-7-(5-pyrimidinyl)spiro[chromeno[2,3-c]pyridine-5,4′-[1,3]oxazol]-2′-amine]",IC50,BACE1 [1]; [5],< 0.1 µM
same,IC50,BACE1 [2]; read-out: BACE1 FRET assay,< 0.1 µM
"CC(C)(C)CC(=O)c1ccc2c(c1)[C@]1(COC(N)=N1)c1cc(-c3cncnc3)ccc1O2 [compound 48, 1-((4S)-2-amino-7′-(5-pyrimidinyl)spiro[1,3-oxazole-4,9′-xanthen]-2′-yl)-3,3-dimethyl-1-butanone]",IC50,BACE1 [1]; [10],0.1 to 1 µM and < 0.1 µM
same,IC50,BACE1 [2]; [11],0.1 to 1 µM and < 0.1 µM
CC(C)(C)C#Cc1ccc2c(n1)[C@]1(COC(N)=N1)c1cc(-c3cncnc3)ccc1O2 [compound 526],IC50,BACE1 [1]; [5],0.1 to 1 µM
same,IC50,BACE1 [2]; read-out: BACE1 FRET assay,0.1 to 1 µM
CC1(COc2cnc3c(c2)[C@]2(COC(N)=N2)c2cc(-c4cc(F)ccc4F)ccc2O3)COC1 [compound 412],IC50,BACE1 [1]; [6],< 0.1 µM
same,IC50,BACE1 [2]; [7],< 0.1 µM
COC(C)(C)C#Cc1ccc2c(c1)[C@]1(COC(N)=N1)c1cc(-c3cccnc3)ccc1O2 [compound 201],IC50,BACE1 [1]; [3],< 0.1 µM
same,IC50,BACE1 [2]; [4],< 0.1 µM
NC1=N[C@]2(CO1)c1cc(Br)ccc1Oc1ccc(-c3cccnc3)cc12 [compound 960],IC50,BACE1 [1]; read-out: HEK cell assay,1 to 5 µM
same,IC50,BACE1 [2]; read-out: BACE1 FRET assay,0.1 to 1 µM
COc1ccc2c(c1)[C@]1(COC(N)=N1)c1cc(-c3cccc4cnccc34)ccc1O2 [compound 588],IC50,BACE1 [1]; [8],1 to 5 µM
same,IC50,BACE1 [2]; [9],0.1 to 1 µM
CC(C)(C)COc1ccc2c(n1)[C@]1(COC(N)=N1)c1cc(Br)ccc1O2 [compound 735],IC50,BACE1 [1]; read-out: HEK cell assay,1 to 5 µM
same,IC50,BACE1 [2]; read-out: BACE1 FRET assay,1 to 5 µM
Cn1cc(-c2cc(F)c3c(c2)[C@]2(COC(N)=N2)c2cc(-c4cncnc4)ccc2O3)cn1 [compound 511],IC50,BACE1 [1]; [5],< 0.1 µM
same,IC50,BACE1 [2]; read-out: BACE1 FRET assay,< 0.1 µM
CCOc1ccc(-c2cnc3c(c2)[C@]2(COC(N)=N2)c2cc(OC)ccc2O3)cn1 [compound 667],IC50,BACE1 [1]; read-out: HEK cell assay,0.1 to 1 µM
same,IC50,BACE1 [2]; read-out: BACE1 FRET assay,0.1 to 1 µM
CC(C)(C)C#Cc1ccc2c(c1)[C@]1(COC(N)=N1)c1cc(-c3cccnc3)ncc1O2 [compound 824],IC50,BACE1 [1]; [8],0.1 to 1 µM
same,IC50,BACE1 [2]; [9],< 0.1 µM
"CC(C)(C)COc1ccc2c(c1)[C@@]1(COC(N)=N1)c1cc(-c3cc(Cl)ccc3F)cnc1O2 [Example 90, (5S)-3-(5-chloro-2-fluorophenyl)-7-(2,2-dimethylpropoxy)spiro[chromeno[2,3-b]pyridine-5,4′-[1,3]oxazol]-2′-amine]",IC50,BACE1 [1]; [10],1 to 5 µM
same,IC50,BACE1 [2]; [11],< 0.1 µM
COC(=O)/C=C/c1ccc2c(c1)[C@]1(COC(N)=N1)c1cc(-c3cncnc3)ccc1O2 [compound 993],IC50,BACE1 [1]; read-out: HEK cell assay,0.1 to 1 µM
same,IC50,BACE1 [2]; read-out: BACE1 FRET assay,< 0.1 µM
NC1=N[C@]2(CO1)c1cc(OC[C@H](O)C(F)(F)F)ccc1Oc1ccc(-c3cccnc3)cc12 [compound 924],IC50,BACE1 [1]; [8],0.1 to 1 µM
same,IC50,BACE1 [2]; [9],< 0.1 µM
CC(C)(C)COc1ccc2c(c1)[C@]1(COC(N)=N1)c1cc(-c3ccc(Cl)nc3)ccc1O2 [compound 887],IC50,BACE1 [1]; [8],0.1 to 1 µM
same,IC50,BACE1 [2]; [9],< 0.1 µM
Cc1cscc1-c1ccc2c(c1)[C@@]1(COC(N)=N1)c1cc(OCC(C)(C)C)ccc1O2 [compound 738],IC50,BACE1 [1]; read-out: HEK cell assay,1 to 5 µM
same,IC50,BACE1 [2]; read-out: BACE1 FRET assay,0.1 to 1 µM
CC(C)(C)COc1ccc2c(c1)[C@@]1(COC(N)=N1)c1cc(-c3cnc4ccccn34)ccc1O2 [compound 192],IC50,BACE1 [1]; [3],> 5 µM
same,IC50,BACE1 [2]; [4],1 to 5 µM
N#Cc1ccc(-n2ccc3c(c2=O)[C@@]2(COC(N)=N2)c2cc(-c4cccnc4)ccc2O3)cc1 [compound 523],IC50,BACE1 [1]; [5],1 to 5 µM
same,IC50,BACE1 [2]; read-out: BACE1 FRET assay,1 to 5 µM
COC(C)(C)COc1ccc2c(c1)[C@]1(COC(N)=N1)c1cc(-c3cccnc3)ccc1O2 [compound 149],IC50,BACE1 [1]; [3],< 0.1 µM
same,IC50,BACE1 [2]; [4],< 0.1 µM
"COC(C)(C)CCc1ccc2c(c1)C1(COC(N)=N1)c1cc(-c3cccnc3)cnc1O2 (racemic) [Example 110, rac-7-(3-methoxy-3-methylbutyl)-3-(3-pyridinyl)spiro[chromeno[2,3-b]pyridine-5,4′-[1,3]oxazol]-2′-amine]",IC50,BACE1 [1]; [3],0.1 to 1 µM
same,IC50,BACE1 [2]; [4],< 0.1 µM
NC1=N[C@@]2(CO1)c1cc(-c3cccnc3)ccc1Oc1cnc(Cl)cc12 [compound 676],IC50,BACE1 [1]; read-out: HEK cell assay,1 to 5 µM
same,IC50,BACE1 [2]; read-out: BACE1 FRET assay,0.1 to 1 µM
NC1=N[C@@]2(CO1)c1cc(-c3cncnc3)ccc1Oc1cccnc12 [compound 525],IC50,BACE1 [1]; [5],> 5 µM
same,IC50,BACE1 [2]; read-out: BACE1 FRET assay,> 5 µM
CC(C)(F)COc1ccc2c(c1)[C@]1(COC(N)=N1)c1cc(-c3cccnc3)ccc1O2 [compound 148],IC50,BACE1 [1]; [3],< 0.1 µM
same,IC50,BACE1 [2]; [4],< 0.1 µM
NC1=N[C@]2(CO1)c1cc(OC3CCC3)ccc1Oc1ccc(-c3cccnc3)cc12 [compound 195],IC50,BACE1 [1]; [3],0.1 to 1 µM
same,IC50,BACE1 [2]; [4],< 0.1 µM
COc1cncc(-c2ccc3c(c2)[C@@]2(COC(N)=N2)c2cc(OCC(C)(C)C)cnc2O3)c1 [compound 383],IC50,BACE1 [1]; [6],< 0.1 µM
same,IC50,BACE1 [2]; [7],< 0.1 µM
CC1(C)C[C@H](c2ccc3c(c2)[C@]2(COC(N)=N2)c2cc(-c4cncnc4)ccc2O3)CCO1 [compound 482],IC50,BACE1 [1]; [5],< 0.1 µM
same,IC50,BACE1 [2]; read-out: BACE1 FRET assay,< 0.1 µM
COC(C)(C)C#Cc1cnc2c(c1)[C@@]1(COC(N)=N1)c1cc(-c3cncc(F)c3)ccc1O2 [compound 699],IC50,BACE1 [1]; read-out: HEK cell assay,1 to 5 µM
same,IC50,BACE1 [2]; read-out: BACE1 FRET assay,0.1 to 1 µM
NC1=N[C@@]2(CO1)c1cc(-c3cncnc3)ccc1Oc1ccc(N3CC(F)(F)C3)cc12 [compound 508],IC50,BACE1 [1]; [5],< 0.1 µM
same,IC50,BACE1 [2]; read-out: BACE1 FRET assay,< 0.1 µM
CC(C)(C)COc1ccc2c(c1)[C@]1(COC(N)=N1)c1cc(-c3ccc(F)nc3)cnc1O2 [compound 869],IC50,BACE1 [1]; [8],1 to 5 µM
same,IC50,BACE1 [2]; [9],0.1 to 1 µM
NC1=N[C@@]2(CO1)c1ccccc1Oc1ccc(C(=O)N3CCCCC3)cc12 [compound 639],IC50,BACE1 [1]; [8],> 5 µM
same,IC50,BACE1 [2]; [9],> 5 µM
Cc1ccccc1-c1ccc2c(c1)[C@]1(COC(N)=N1)c1cc(-c3cncnc3)ccc1O2 [compound 220],IC50,BACE1 [1]; [3],0.1 to 1 µM
same,IC50,BACE1 [2]; [4],< 0.1 µM
CC(C)(C)COc1ccc2c(c1)[C@]1(COC(N)=N1)c1cc(-c3ccc(C#N)nc3)ccc1O2 [compound 882],IC50,BACE1 [1]; [8],1 to 5 µM
same,IC50,BACE1 [2]; [9],< 0.1 µM
NC1=N[C@]2(CO1)c1cc(-c3ccccc3)ccc1Oc1ncc(C3=CCOCC3)cc12 [compound 718],IC50,BACE1 [1]; read-out: HEK cell assay,1 to 5 µM
same,IC50,BACE1 [2]; read-out: BACE1 FRET assay,1 to 5 µM
CC(C)(C)COc1cc2c(cc1F)[C@]1(COC(N)=N1)c1cc(-c3cncnc3)ccc1O2 [compound 999],IC50,BACE1 [1]; read-out: HEK cell assay,> 5 µM
same,IC50,BACE1 [2]; read-out: BACE1 FRET assay,1 to 5 µM
NC1=N[C@]2(CO1)c1cc(C#CC3(O)CCC3)ccc1Oc1ccc(-c3cccnc3)cc12 [compound 942],IC50,BACE1 [1]; read-out: HEK cell assay,< 0.1 µM
same,IC50,BACE1 [2]; read-out: BACE1 FRET assay,< 0.1 µM
NC1=N[C@@]2(CO1)c1ccccc1Oc1ccc(-c3cnc4ccccc4c3)cc12 [compound 628],IC50,BACE1 [1]; [8],> 5 µM
same,IC50,BACE1 [2]; [9],> 5 µM
"CC(C)(C)COc1ccc2c(c1)C1(COC(N)=N1)c1cc(Br)ccc1O2 (stereo not drawn) [Example 57, 2′-bromo-7′-(2,2-dimethylpropoxy)spiro[1,3-oxazole-4,9′-xanthen]-2-amine]",IC50,BACE1 [1]; [10],1 to 5 µM
same,IC50,BACE1 [2]; [11],0.1 to 1 µM
NC1=N[C@]2(CO1)c1cc(-c3cccnc3)ccc1Oc1ncccc12 [compound 635],IC50,BACE1 [1]; [8],0.1 to 1 µM
same,IC50,BACE1 [2]; [9],0.1 to 1 µM
